Data from patent publication US6245778A, “1,6-naphthyridine anti-convulsants” (SmithKline Beecham p.l.c., priority 1997, dated 2001).
Where a name gives a salt, the structure may show the parent alone.

Experiments:
[1] = target: novel receptor obtainable from rat forebrain tissue; assay: Radioligand binding assay, displacement of [3H]-Compound A from rat forebrain tissue; conditions: [3H]-Compound A 20 nM, room temperature, 1 hour
Description: The affinity of test compounds to the novel receptor site is assessed as follows. Whole forebrain tissue is obtained from rats. The tissue is first homogenised in buffer (usually 50 mM Tris/HCl, pH 7.4). The homogenised tissue is washed by centrifugation and resuspension in the same buffer, then stored at -70° C. until used. […] The final concentration of [3H]-Compound A in the mixture is usually 20 nM. The mixture is incubated at room temperature for 1 hour. [3H]-Compound A bound to the tissue is then separated from unbound [3H]-Compound A by filtration through Whatman GF/B glass fibre filters. The filters are then washed rapidly with ice-cold buffer. The amount of radioactivity bound to the tissue trapped on the filters is measured by addition of liquid scintillation cocktail to the filters followed by counting in a liquid scintillation counter. In order to determine the amount of "specific" binding of [3H]-Compound A, parallel assays are carried out as above in which [3H]-Compound A and tissue are incubated together in the presence of unlabelled Compound A (usually 3 μM). The amount of binding of [3H]-Compound A remaining in the presence of this unlabelled compound is defined as "non-specific" binding. This amount is subtracted from the total amount of [3H]-Compound A binding (i.e. that present in the absence of unlabelled compound) to obtain the amount of "specific" binding of [3H]-Compound A to the novel site. The affinity of the binding of test compounds to the novel site can be estimated by incubating together [3H]-Compound A and tissue in the presence of a range of concentrations of the compound to be tested. The decrease in the level of specific [3H]Compound A binding as a result of competition by increasing concentrations of the compound under test is plotted graphically, and non-linear regression analysis of the resultant curve is used to provide an estimate of compound affinity in terms of pKi value.

[2] = tested on: electrically-induced seizures (tonic seizure threshold, CC50); assay: Maximal electroshock seizure (MEST) threshold test; assay type: in vivo; conditions: mice, 10 mg/kg p.o., suspension in methyl cellulose, one hour post dosing

| Compound | in vitro binding affinity, pKi [1] | increase in seizure threshold (CC50) compared to control [2] |
| --- | --- | --- |
| COc1ccc(C(=O)Nc2cnc3c(c2)CN(C)CC3)cc1Br.Cl [Example 1, N-(6-Methyl-5,6,7,8-tetrahydro[1,6]naphthyridin-3-yl)-3-bromo-4-methoxybenzamide, monohydrochloride] | > 8.0 | 177% |
| CN1CCc2ncc(NC(=O)c3ccccc3)cc2C1 [Example 2, N-(6-Methyl-5,6,7,8-tetrahydro[1,6]naphthyridin-3-yl)-benzamide] |  | 97% |
| COc1cc(C(C)(C)C)ccc1C(=O)Nc1cnc2c(c1)CN(C)CC2.Cl [Example 3, N-(6-Methyl-5,6,7,8-tetrahydro[1,6]naphthyridin-3-yl)-2-methoxy-4-t-butylbenzamide, monohydrochloride] | > 8.0 |  |
| CCOc1ccc(C(=O)Nc2cnc3c(c2)CN(C)CC3)cc1 [Example 5, N-(6-Methyl-5,6,7,8-tetra hydro[1,6]naphthyridin-3-yl)-4-ethoxybenzamide, monohydrochloride] |  | 106% |
| CN1CCc2ncc(NC(=O)c3ccc(C(C)(C)C)cc3)cc2C1 [Example 10, N-(6-Methyl-5,6,7,8-tetrahydrol[1,6]naphthyridin-3-yl)-4-t-butylbenzamide, monihydrochloride] | > 8.0 |  |
| CCOc1ccc(C(=O)Nc2cnc3c(c2)CN(C)CC3)cc1Br [Example 11, N-(6-Methyl-5,6,7 ,8-tetrahydro[1,6]naphthyridin-3-yl)-3-bromo-4-ethoxybenzamide, monohydrochloride] | > 8.0 |  |
| CC(C)Oc1ccc(C(=O)Nc2cnc3c(c2)CN(C)CC3)cc1Br.Cl [Example 12, N-(6-Methyl-5,6,7,8-tetrahydro[1,6]naphthyridin-3-yl)-3-bromo-4-iso-propyloxybenzamide, monohydrochloride] | > 8.0 |  |
| CCOc1ccc(C(=O)Nc2cnc3c(c2)CN(C)CC3)cc1[N+](=O)[O-].Cl [Example 20, N-(6-Methyl-5,6,7,8-tetrahydro[1,6]naphthyridin-3-yl)-4-ethoxy-3-nitrobenzamide hydrochloride] | > 8.0 |  |
| COc1ccc(C(=O)Nc2cnc3c(c2)CN(C)CC3)cc1I.Cl [Example 28, N-(6-Methyl-5,6,7,8-tetrahydro[1,6]naphthyridin-3-yl)-3-iodo-4-methoxybenzamide hydrochloride] | > 8.0 |  |
| CCCOc1ccc(C(=O)Nc2cnc3c(c2)CN(C)CC3)cc1C#N [Example 30, N-(6-Methyl-5,6,7,8-tetrahydro[1,61naphthyridin-3yl)-3-cyano-4-n-propyloxybenzamide, hydrochloride] | > 8.0 |  |
| CC(C)Oc1ccc(C(=O)Nc2cnc3c(c2)CN(C)CC3)cc1Cl.Cl [Example 33, N-(6-Methyl-5,6,7,8-tetrahydro[1,6]naphthyridin-3-yl)-3-chloro-4-iso-propyloxybenzamide, hydrochloride] | > 8.0 |  |
| CC(C)Oc1ccc(C(=O)Nc2cnc3c(c2)CN(C)CC3)cc1C(F)(F)F.Cl [Example 36, N-(6-Methyl-5,6,7,8-tetrahydro[1,6]naphthyridin-3-yl)-4-iso-propyloxy-3-trifluoromethylbenzamide, hydrochloride] | > 8.0 |  |
